From US20070167526A1, “Topical mecamylamine formulations for ocular administration and uses thereof” (priority 2005, published 2007) come the findings set out here.

The nature of series [1]: Ocular bioavailability following topical ocular administration of 2% isotonic or in situ gel-forming solution (Examples 5, 6). It is filed as in vivo, New Zealand White rabbit. The note with it: rabbit. The text has this: The objective of this study was to determine the pharmacokinetics of mecamylamine, administered either as an isotonic solution (prepared as in Example 3) or in situ gel-forming solution (as prepared in Example 4), in the plasma, vitreous humor and retina of the eyes when applied topically to the surface of the eye.
The study comprised 2 groups (N=4/group; 8 rabbits total) of male NZW rabbits each weighing approximately 2-3 kg and obtained from Kralek Farms (Turlock, Calif.). […] For both groups, samples of the vitreous(≧0.1 ml) were withdrawn at 6 time points (one withdrawal per eye): pre-dose, 30 min, 1 (sacrifice), 3, 6, 12, and 24 (sacrifice) hr. At all time points, only duplicate vitreous fluid samples (each coming from different eye from different animals) were collected in order to minimize pain and damage to rabbit eyes.
Blood for plasma(≧0.5 ml) and intra-vitreal fluid (˜0.1 ml) were collected at 0, 30, 60 min from each animal with sacrifice for 2 animals/group at 60 minutes. […]
A 0.5 mg/mL stock of mecamylamine hydrochloride USP in DMSO was prepared and used as the working standard to produce the calibration standards for quantification of the mecamylamine content in various samples collected as described above. […]
Each tissue sample collected was weighed. […] The samples were analyzed using LC/MS/MS and quantified using the calibration standards prepared in plasma as described above.

The next series is described as follows: in vivo. The following applies: rabbit. As for the experimental part:
As used herein, the term “topically administered to a rabbit eye,” and cognates thereof, refers to the administration of a particular mecamylamine formulation, including formulations of pharmaceutically acceptable salts of mecamylamine, by applying 100 μL of the mecamylamine formulation to the cornea of each eye (2 drops of 50 μL each), wherein at the time of application the bottom eyelid is separated from the surface of the eye to make a pocket to ensure the entire dose is retained in contact with the eye. When the concentration of mecamylamine in plasma and in the retinal/choroidal tissue is to be measured in connection with the calculation of the ratio of the mecamylamine concentration in the retina/choroid versus the concentration of mecamylamine in plasma, the concentration of each is determined 1 hour after application of the formulation. The amount of mecamylamine present in plasma and the retina/choroid is determined by LC/MS/MS using internal standards of dextromethorphan and diphenhydramine and a standard of known concentration of mecamylamine. An exemplary method of administration of the topical formulation of mecamylamine is provided in Example 5. An exemplary LC/MS/MS method for determining the ratios described herein is given in detail in Example 6. When the mean maximum concentration of mecamylamine in plasma is to be determined, the concentration is again determined as described above and in Example 6. The term “mean maximum concentration of mecamylamine,” and its cognates, as used herein refers to the mean maximum concentration of mecamylamine measured in plasma when monitored over a 6 hour time period after administration of the formulation. When the mean total concentration of mecamylamine in plasma is to be determined, the concentration is again determined as described above and in Example 6. The term “total concentration of mecamylamine in plasma measured as the area under the curve,” (AUC) and cognates thereof, refers to summation of the areas under plot of the drug plasma versus time using a simple trapezoidal method with drug plasma time points taken to include 1, 3 and 6 hours after topical administration. Determination of AUC for corneal tissue, retinal/choroid tissue and aqueous humor is determined similarly. When the concentration of mecamylamine in plasma and in the corneal tissue is to be measured in connection with the calculation of the ratio of the mecamylamine concentration in the cornea (or aqueous humor) versus the concentration of mecamylamine in plasma, the concentration of each is determined 1 hour after application of 50 μl of the formulation. The amount of mecamylamine present in plasma and the cornea (or aqueous humor) is determined by LC/MS/MS using internal standards of dextromethorphan and diphenhydramine and a standard of known concentration of mecamylamine. An exemplary method of administration of the topical formulation of mecamylamine is provided in Example 5. An exemplary LC/MS/MS method for determining the ratios described herein is given in detail in Example 6.
A single dose of a polymer-free solution, gellan gum formulation and hypromellose formulation containing 3% mecamylamine hydrochloride, was instilled in the eyes of rabbits (Dutch-belted male rabbits (Convance, Denver, Pa.) minimum age 2 months and with weights of 1.6 to 1.8 kg). Two animals were euthanized 30 minutes, 1 hour or 3 hours after dosing.
Sample of blood and ocular tissue (obtained as described in previous examples) were analyzed for mecamylamine concentration using an LC MS/MS method up to 3 hours after dosing.
The area-under-the-curve (AUC) was calculated using a trapezoidal rule on a population pharmacokinetic basis (see Table 9).

SMILES strings stand for the structures. Where only a bound is given, the exact number is not on record here.

In the case of `CNC1(C)C2CCC(C2)C1(C)C` (stereo not drawn) [mecamylamine, N-2,3,3-tetramethylbicyclo(2.2.1)heptan-2-amine], the “retinal/choroidal tissue:plasma ratio, topical compared to systemic administration” value in series [1] is listed as “at least 40 fold”. Also, in series [1] (topical ocular), the “levels of mecamylamine in erythrocytes (red blood cells) versus plasma” value was “comparable”. In the series “in vivo” (male, Dutch-belted, in vivo), this compound came in with a Kp at 1 h of at least 1000. The “ratio of the concentration of mecamylamine in the aqueous humor versus plasma” value in “in vivo” (male, Dutch-belted, in vivo, 1 h) is recorded as “at least 50:1”. The area under the curve (AUC) (as a rule, concentration integrated over time) in “in vivo” (male, Dutch-belted, in vivo, topical or ocular) is below 85 ng·h/mL. Moreover, the “safety issues during the study” value in the series “in vivo” (single ocular dose) is “No safety issues arose”.
